Results reported in patent US20260027123A1, “Compositions for Modulating Lipoxygenase and Methods of Using Same” (The Regents of the University of California, priority 2022, published 2026).
Where “and” joins values, the source holds several entries; their conditions need not be identical. Identical values can stand only once.

Legend:
Assay type in all cases: physicochemical
[1] = Compositions prepared by mixing with solvent and sonication; soluble yes/no; details: Table 2
Description: (§1) Compositions were generally prepared by mixing with solvent and sonicated at room temperature in a water bath for 10 minutes. After a 15 minute waiting period at room temperature, the composition was sonicated again for 15 minutes at room temperature. Table 1 provides a list of formulations prepared for Compound 27332 according to certain embodiments. Table 2 provides a list of formulations prepared for 5-(methylamino)-2-naphthalen-1-yl-1,3-oxazole-4-carbonitrile (Compound ML351) according to certain embodiments. Compositions were analyzed by absorbance spectrometry at 340 nm to characterize the solubility of the compounds in each solvent mixture. Measurements were taken using a Cary60 spectrophotometer. Briefly, 2 ml absolute EtOH was added to cuvette, and instrument blanked. Then 2 μl of the excipient buffer was added, and scanned from 450 nm to 200 nm in order to confirm no large/interfering peak at 340 nm. Next, 2 μl of […] (in absolute EtOH) was added to the cuvette and scanned (450 nm to 200 nm)—this was repeated twice more for a total of three measurements. The difference in Abs(340) was determined for each subsequent addition. These three measurements were used to calculate the concentration (in molarity) using previously determined epsilon, and converted back to mg/ml.

[2] = Absorbance spectrometry at 340 nm to characterize solubility in each solvent mixture (measured concentration); details: Table 2
Description: as §1

[3] = Viscosity of the composition; details: Table 2
[4] = Soluble after 24 hours at room temperature; details: Table 2, 20/80 DMA/PEG400
[5] = 20/80 DMA/PEG400, Approx Conc. 50 mg/ml
[6] = 20/80 DMA/PEG400, Approx Conc. 78.1 mg/ml
[7] = 20/80 DMA/PEG400, Approx Conc. 90.5 mg/ml
[8] = 20/80 Diethylacetamide/PEG400, Approx Conc. 50 mg/ml
[9] = Intralipid, Approx Conc. 0.250 mg/ml

Question: Which Soluble [1, 5] does the source give for `CNc1oc(-c2cccc3ccccc23)nc1C#N` [ML351, 5-(methylamino)-2-naphthalen-1-yl-1,3-oxazole-4-carbonitrile] here?
Answer: yes

Question: What about the Soluble [1, 6] of the same compound?
Answer: yes

Question: What about the Soluble [1, 7] of the same compound?
Answer: No

Question: And the Soluble [1, 8]?
Answer: yes

Question: What about the Soluble [1, 9] of the same compound?
Answer: yes

Question: What about the “Measured Conc.” value [2, 5] of the same compound?
Answer: 46.1 mg/mL

Question: What about the “Measured Conc.” value [2, 6] of the same compound?
Answer: 75.7 mg/mL

Question: And the “Measured Conc.” value [2, 7]?
Answer: 66.3 mg/mL and 54.9 mg/mL

Question: And the “Measured Conc.” value [2, 8]?
Answer: 52.5 mg/mL and 45.5 mg/mL

Question: And the “Measured Conc.” value [2, 9]?
Answer: 0.315 mg/mL

Question: What about the Viscosity [3, 5] of the same compound?
Answer: low

Question: And the Viscosity [3, 6]?
Answer: low

Question: And the Viscosity [3, 7]?
Answer: low

Question: What about the Viscosity [3, 8] of the same compound?
Answer: low

Question: And the Viscosity [3, 9]?
Answer: low

Question: What about the “Soluble after 24 hours at Room Temperature” value ([4]; Approx Conc. 50 mg/ml) of the same compound?
Answer: yes

Question: And the “Soluble after 24 hours at Room Temperature” value ([4]; Approx Conc. 78.1 mg/ml)?
Answer: yes
